# According to patent publication US20090170834A1, “Fused Pyrimidones and Thiopyrimidones, and Uses Thereof” (PROLEXYS PHARMACEUTICALS, INC., priority 2005, published 2009):
# System: HT-1080 cells
# Experiment: Inhibition of growth of HT-1080 cells (Sytox assay)
# Format: cell-based
# Conditions: Homo sapiens; HT-1080 fibrosarcoma cells, N-ras codon 12 mutation; compound in DMSO, 48 hours exposure
# Experimental: The ability of Compounds 1 and 2, dissolved in DMSO, to inhibit the growth of normal and tumorigenic cells was measured. The compounds were assayed by the Sytox primary screen, a phenotypic assay which monitors alterations in cell survival-proliferation as a result of compound treatment. It was devised as high throughput method to identify compounds which specifically alter the growth potential of cells harboring the causative mutations found in cancer patients while not affecting the growth of normal cells. The assay relies upon an inexpensive, simple and reliable readout of a membrane impermeable fluorescent dye (Sytox, from Molecular Probes) which binds to nucleic acid. In healthy cells, no signal is detected because the cell's membrane is intact and the dye will not enter. However, if a cell's membrane is compromised as a result of apoptosis or necrosis, a fluorescent signal proportional to the number of similarly affected cells will be detected. By utilizing a two-step readout (final read in the presence of detergent to permit labeling of all cells), the assay can identify compounds which produce cytostasis, cytotoxicity and/or mitogenesis. The first read or “dead cell” read, provides an estimate of the toxicity of a given compound by indicating the number of dead or dying cells in the culture at the time of assay. The second read or “total cell” read, captures both the cumulative effects of cytoxicity in reducing the size of the cell population as well as any cytostatic or anti-proliferative effects a test compound may exert on the cells in the test population in the absence of toxicity.
# Cells were seeded overnight in 96 well plates at densities that without treatment would permit 95% confluence in the wells 72 hours later. The following day, the cells were exposed to test compounds in a dilution series for a period of 48 hours. Following this incubation period, the Sytox reagent was added to the cultures at the manufacturer's recommended concentration and the dead cell fluorescence read was taken. After completion of this measurement, the detergent Saponin was added to each well of the cultures to permeabilize the membranes allowing the Sytox reagent to enter every cell, thereby facilitating measurement of the total number of cells remaining in the culture.
# The ability of various compounds of the invention, in DMSO, to inhibit the growth of HT-1080 cells was measured. The HT-1080 cell line used in these experiments was derived from a patient with fibrosarcoma and harbors an activating mutation in the N-ras gene at codon 12. The compound was assayed using the assay described in Example 6. The results of the assay are shown in the table below, where the activity corresponds to the following ranges: A—less than 10 nM, B—10-100 nM, C—100-1000 nM, D—1000-2000 nM, E—greater than 2000 nM.
row,SMILES,IC50
1,"CCOc1ccccc1-n1c(CN2CCCNCC2)nc2sccc2c1=O [Compound 5, 2-((1,4-diazepan-1-yl)methyl)-3-(2-ethoxyphenyl)thieno[2,3-d]pyrimidin-4(3H)-one]",< 0.01 µM
2,"CCOc1ccccc1-n1c(CN2CCNCC2)nc2sccc2c1=O [Compound 4, 3-(2-ethoxyphenyl)-2-(piperazin-1-ylmethyl)thieno[2,3-d]pyrimidin-4(3H)-one]",0.1 to 1 µM
3,"CCOc1ccccc1-n1c(CN2CCNCC2)nc2cnccc2c1=O [Compound 8, 3-(2-ethoxyphenyl)-2-(piperazin-1-ylmethyl)pyrido[3,4-d]pyrimidin-4(3H)-one]",> 2 µM
4,"CCOc1ccccc1-n1c(CN2CCCN(C)CC2)nc2sccc2c1=O [Compound 6, 3-(2-ethoxyphenyl)-2-((4-methyl-1,4-diazepan-1-yl)methyl)thieno[2,3-d]pyrimidin-4(3H)-one]",< 0.01 µM
5,"CCOc1ccccc1-n1c(CN2CCNCC2)nc2c(cnn2-c2ccccc2)c1=O [Compound 3, 5-(2-ethoxyphenyl)-1-phenyl-6-(piperazin-1-ylmethyl)-1H-pyrazolo[3,4-d]pyrimidin-4(5H)-one]",> 2 µM
6,"CCOc1ccccc1-n1c(CN2CCCN(C)CC2)nc2cnccc2c1=O [Compound 9, 3-(2-ethoxyphenyl)-2-((4-methyl-1,4-diazepan-1-yl)methyl)pyrido[3,4-d]pyrimidin-4(3H)-one]",> 2 µM
7,"CCOc1ccccc1-n1c(CN2CCCN(CC)CC2)nc2sccc2c1=O [Compound 7, 3-(2-ethoxyphenyl)-2-((4-ethyl-1,4-diazepan-1-yl)methyl)thieno[2,3-d]pyrimidin-4(3H)-one]",0.01 to 0.1 µM

# System: engineered tumorigenic cells
# Experiment: Sytox primary screen, inhibition of growth of tumorigenic cells
# Format: cell-based
# Conditions: Homo sapiens; compound in DMSO, 48 hours exposure, Sytox readout
# Experimental: The ability of Compounds 1 and 2, dissolved in DMSO, to inhibit the growth of normal and tumorigenic cells was measured. The compounds were assayed by the Sytox primary screen, a phenotypic assay which monitors alterations in cell survival-proliferation as a result of compound treatment. It was devised as high throughput method to identify compounds which specifically alter the growth potential of cells harboring the causative mutations found in cancer patients while not affecting the growth of normal cells. The assay relies upon an inexpensive, simple and reliable readout of a membrane impermeable fluorescent dye (Sytox, from Molecular Probes) which binds to nucleic acid. In healthy cells, no signal is detected because the cell's membrane is intact and the dye will not enter. However, if a cell's membrane is compromised as a result of apoptosis or necrosis, a fluorescent signal proportional to the number of similarly affected cells will be detected. By utilizing a two-step readout (final read in the presence of detergent to permit labeling of all cells), the assay can identify compounds which produce cytostasis, cytotoxicity and/or mitogenesis. The first read or “dead cell” read, provides an estimate of the toxicity of a given compound by indicating the number of dead or dying cells in the culture at the time of assay. […]
row,SMILES,IC50
1,"CCOc1ccccc1-n1c(C(C)N2CCN(C(=O)COc3ccc(Cl)cc3)CC2)nc2ccncc2c1=O (stereo not drawn) [Compound 1, 2-(1-(4-(2-(4-chlorophenoxy)acetyl)piperazin-1-yl)ethyl)-3-(2-ethoxyphenyl)pyrido[4,5-d]pyrimidin-4(3H)-one]",~10 µM
2,"CCOc1ccccc1-n1c(C(C)N2CCN(C(=O)COc3ccc(Cl)cc3)CC2)nc2c(cnn2-c2ccccc2)c1=O (stereo not drawn) [Compound 2, 6-(1-(4-(2-(4-chlorophenoxy)acetyl)piperazin-1-yl)ethyl)-5-(2-ethoxyphenyl)-1-phenyl-1H-pyrazolo[3,4-d]pyrimidin-4(5H)-one]",~10 µM
